Laboratory results as given in US10421751B2, “Dihydro-2H-benzo[b][1,4]oxazine sulfonamide and related compounds for use as agonists of RORγ and the treatment of disease” (Lycera Corporation, priority 2015, dated 2019).

Experiments:
RORγ-LBD = target: T1, RORγ-LBD (Homo sapiens, UniProt P51449); assay: RORγ-Ligand Binding Domain (LBD) TR-FRET Assay; format: biochemical; conditions: for EC50: in presence of 2 μM RORγ antagonist ursolic acid, SRC1 coactivator peptide; for TR-FRET Assay Max Response: upper plateau of 4-parameter fit, signal in the absence of ursolic acid or test compound set as 100
T1 construct: made in house; host or cells: SF9 cells, baculovirus expression system; used as diluted lysate
T1 sequence (P51449 269-508 limits assumed): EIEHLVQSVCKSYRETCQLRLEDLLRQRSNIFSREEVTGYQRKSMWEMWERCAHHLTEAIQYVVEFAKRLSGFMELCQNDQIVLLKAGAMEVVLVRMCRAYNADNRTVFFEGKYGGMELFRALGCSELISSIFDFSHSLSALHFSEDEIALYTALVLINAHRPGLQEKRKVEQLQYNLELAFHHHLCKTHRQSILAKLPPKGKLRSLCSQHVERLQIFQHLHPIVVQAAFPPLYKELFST
Protocol: HIS-tagged RORγ-LBD protein was expressed in SF9 cells using a baculovirus expression system. The lysate was diluted in assay buffer (50 mM Tris pH 7.0, 50 mM KCl, 1 mM EDTA, 0.1 mM DTT, 0.01% BSA) to obtain RORγ-LBD final concentration of ˜3 nM in a 384-well assay plate (need to titrate for each batch of protein).
A stock of biotinylated-LXXLL peptide from coactivator SRC1 (Biotin-[…]) was prepared in assay buffer and added to each well (200 nM final concentration). A solution of Europium tagged anti-HIS antibody (0.6 nM final concentration) and APC-conjugated streptavidin (30 nM final concentration) were also added to each well. RORγ antagonist ursolic acid was also included at a final concentration of 2 μM. Compounds were diluted in DMSO and further diluted in assay buffer with a final DMSO concentration at 1%.
The final assay mixture was incubated overnight at 4° C. or 2 hours at room temperature, and the fluorescence signal was measured on an Envision plate reader: (Excitation filter=340 nm; APC emission=665 nm; Europium emission=615 nm; dichroic mirror=D400/D630; delay time=100 μs, integration time=200 μs). 50% Effective concentration (EC50) values for test compounds were calculated from the quotient of the fluorescence signal at 665 nm divided by the fluorescence signal at 615 nm. The quotient of the fluorescence signals in the absence of ursolic acid or test compound is set as 100. Max Response is defined as the upper plateau in the signal as determined by line-fit using a 4-parameter logistic model in PRISM (GraphPad).

Gal4-RORγ-LBD = target: T2, Gal4-RORγ-LBD (Homo sapiens, UniProt P51449); assay: Gal4-RORγ Luciferase Reporter Assay in HEK-293T Cells; format: cell-based; conditions: for EC50: HEK-293 cells, in presence of 2 μM ursolic acid, overnight incubation, read-out: Ga14-RORγ Assay EC50; for Ga14-RORγ Assay Max Response: upper plateau of 4-parameter fit, luciferase signal in the absence of ursolic acid or test compound defined at 100
T2 construct: expressed in transfected cells; pcDNA3.1neo plasmid, co-transfected with pGL4.31 Gal4-luciferase reporter
T2 sequence (P51449 269-508 limits assumed): T1 sequence (P51449 269-508 limits assumed)
Protocol: In the following protocol, HEK-293 cells were transfected with a construct comprising the Gal4 DNA binding domain fused to the ligand binding domain of RORγ (Gal4-RORγ-LBD) in a pcDNA3.1neo plasmid, and also with a reporter construct comprising pGL4.31 Gal4-luciferase (Promega). Control cells were prepared similarly using empty pcDNA3.1neo and pGL4.31 vectors.
Trans-IT reagent (Mirus, 60 μL) at room temperature was added drop wise to OptiMEM (Invitrogen, 1.5 ml). This reagent mixture was mixed by inversion then incubated for 5 to 30 minutes at room temperature. It then was added to a solution of both expression vectors (5 μg each), mixed, and incubated at room temperature for about 20 minutes. HEK-293 cells were harvested from incubation flasks by removing the media, treating with TrypLE Express (Invitrogen), and incubating until the cells detached from the bottom of the flask (approximately 2-5 minutes). 10 Million cells were collected by centrifugation and re-suspended in 10 mL of Dulbecco's Modified Eagle Medium, High Glucose (DMEM, Invitrogen) containing 10% Fetal Bovine Serum and 100 IU each of penicillin and streptomycin. The re-suspended cells and the transfection mixture were added to a T75 flask, mixed and incubated overnight at 37° C. and 5% CO2.
The cells were harvested as described above, counted, and centrifuged to obtain the desired number of cells, then re-suspended in complete growth media at 0.75×10^6 cells/mL. The RORγ antagonist, ursolic acid, was added to the cells at a final concentration of 2 μM. Cells were plated at 20 μL of cell suspension/well (10,000-15,000 cells/well) in white tissue culture treated 384 well plates. Test compounds were dissolved at 10 mM in DMSO then diluted into complete growth medium to 5× the final intended test concentration. These drug stock solutions, 5 μL/well were added to the tissue culture plate. The final DMSO concentration was 0.2%. The plates were briefly centrifuged then incubated overnight at 37° C. and 5% CO2. To conduct the assay, the tissue culture plates were allowed to equilibrate to room temperature and One-Glo luciferase reagent (Promega, 25 μL/well) was added. The plates were briefly centrifuged then incubated at room temperature for 10 minutes. The luciferase intensity was read on an Envision plate reader (Perkin Elmer). RORγ activity was determined relative to controls and plotted as a function of test compound concentration using PRISM (GraphPad) to determine a 50% effective concentration (EC50). The luciferase signal in the absence of ursolic acid or test compound is defined at 100. The Max Response is the upper plateau in the signal as determined by line-fit using a 4-parameter logistic model in PRISM (GraphPad).

| EC50 (RORγ-LBD) [µM] | EC50 (Gal4-RORγ-LBD) [µM] | SMILES | TR-FRET Assay Max Response (RORγ-LBD) | Ga14-RORγ Assay Max Response (Gal4-RORγ-LBD) |
| --- | --- | --- | --- | --- |
| < 0.1 | 0.1 to 5 | C/C(=C\c1ccc2c(c1)N(S(=O)(=O)c1cccc(C(F)(F)F)c1)C[C@H](CCc1n[nH]c(=O)o1)O2)c1c(F)cccc1Cl | ** (a value in the range of greater than 90 to 150) | ** (a value in the range of greater than 90 to 150) |
| < 0.1 | 0.1 to 5 | C/C(=C\c1ccc2c(c1)N(S(=O)(=O)c1cccc(C(F)(F)F)c1)C[C@H](CCc1nn[nH]n1)O2)c1c(F)cccc1Cl | *** (a value in the range of greater than 150 to 200) | *** (a value in the range of greater than 150 to 200) |
| < 0.1 | 0.1 to 5 | C/C(=C\c1ccc2c(c1)N(S(=O)(=O)c1cccc(C(F)(F)F)c1)C[C@H](CCn1ccnc1C)O2)c1c(F)cccc1Cl | *** (a value in the range of greater than 150 to 200) | ** (a value in the range of greater than 90 to 150) |
| < 0.1 | 0.1 to 5 | C/C(=C\c1ccc2c(c1)N(S(=O)(=O)c1cccc(C(F)(F)F)c1)C[C@H](CCn1cccn1)O2)c1c(F)cccc1Cl | *** (a value in the range of greater than 150 to 200) | ** (a value in the range of greater than 90 to 150) |
| < 0.1 | 0.1 to 5 | C/C(=C\c1ccc2c(c1)N(S(=O)(=O)c1cccc(C(F)(F)F)c1)C[C@H](CCCn1cc(C(=O)O)nn1)O2)c1c(F)cccc1Cl | *** (a value in the range of greater than 150 to 200) | ** (a value in the range of greater than 90 to 150) |
| < 0.1 | 0.1 to 5 | C/C(=C\c1ccc2c(c1)N(S(=O)(=O)c1cccc(C(F)(F)F)c1)C[C@H](CCCn1ccnn1)O2)c1c(F)cccc1Cl | *** (a value in the range of greater than 150 to 200) | ** (a value in the range of greater than 90 to 150) |
| < 0.1 | 0.1 to 5 | C/C(=C\c1ccc2c(c1)N(S(=O)(=O)c1cccc(C(F)(F)F)c1)C[C@H](CCCn1cccn1)O2)c1c(F)cccc1Cl | *** (a value in the range of greater than 150 to 200) | ** (a value in the range of greater than 90 to 150) |
| 0.1 to 5 | 0.1 to 5 | C/C(=C\c1ccc2c(c1)N(S(=O)(=O)c1cccc(C(F)(F)F)c1)C[C@H](CCCc1noc(=O)[nH]1)O2)c1c(F)cccc1Cl | *** (a value in the range of greater than 150 to 200) | ** (a value in the range of greater than 90 to 150) |
| 0.1 to 5 | 0.1 to 5 | C/C(=C\c1ccc2c(c1)N(S(=O)(=O)c1cccc(C(F)(F)F)c1)C[C@H](CCCc1nn[nH]n1)O2)c1c(F)cccc1Cl | *** (a value in the range of greater than 150 to 200) | ** (a value in the range of greater than 90 to 150) |

Further lines, the compound ahead of its results:

| SMILES | EC50 (RORγ-LBD) [µM] | EC50 (Gal4-RORγ-LBD) [µM] | TR-FRET Assay Max Response (RORγ-LBD) | Ga14-RORγ Assay Max Response (Gal4-RORγ-LBD) |
| --- | --- | --- | --- | --- |
| C/C(=C\c1ccc2c(c1)N(S(=O)(=O)c1cccc(C(F)(F)F)c1)[C@H](C)[C@H](Cn1cccn1)C2)c1c(F)cccc1Cl | < 0.1 | 0.1 to 5 | *** (a value in the range of greater than 150 to 200) | ** (a value in the range of greater than 90 to 150) |
| C/C(=C\c1ccc2c(c1)N(S(=O)(=O)c1cccc(C(F)(F)F)c1)[C@H](C)[C@H](Cn1ccnn1)C2)c1c(F)cccc1Cl | < 0.1 | > 10 | *** (a value in the range of greater than 150 to 200) | * (a value in the range of 40 to 90) |
| CCn1cc(S(=O)(=O)N2C[C@H](CCc3n[nH]c(=O)o3)Oc3ccc(/C=C(\C)c4c(F)cccc4Cl)cc32)c(OCCO)n1 | < 0.1 | 0.1 to 5 | **** (a value greater than 200) | ** (a value in the range of greater than 90 to 150) |
| CCOc1ncc(Cl)cc1S(=O)(=O)N1C[C@H](CCc2n[nH]c(=O)o2)Oc2ccc(/C=C(\C)c3c(F)cccc3Cl)cc21 | < 0.1 | 0.1 to 5 | *** (a value in the range of greater than 150 to 200) | ** (a value in the range of greater than 90 to 150) |
| C/C(=C\c1ccc2c(c1)N(S(=O)(=O)c1cc(Cl)cnc1OCCO)C[C@H](CCc1n[nH]c(=O)o1)O2)c1c(F)cccc1Cl | < 0.1 | 0.1 to 5 | **** (a value greater than 200) | ** (a value in the range of greater than 90 to 150) |
| CCn1cc(S(=O)(=O)N2C[C@H](CCc3n[nH]c(=O)o3)Oc3ccc(/C=C/c4c(Cl)cccc4C(F)(F)F)cc32)c(OCCO)n1 | < 0.1 | 0.1 to 5 | **** (a value greater than 200) | ** (a value in the range of greater than 90 to 150) |
| CCOc1ncc(C(F)(F)F)cc1S(=O)(=O)N1C[C@H](CCc2n[nH]c(=O)o2)Oc2ccc(/C=C/c3c(Cl)cccc3C(F)(F)F)cc21 | 0.1 to 5 | 0.1 to 5 | **** (a value greater than 200) | ** (a value in the range of greater than 90 to 150) |
| O=c1[nH]nc(CC[C@H]2CN(S(=O)(=O)c3cccc(OC(F)F)c3)c3cc(/C=C/c4c(Cl)cccc4C(F)(F)F)ccc3O2)o1 | < 0.1 | 0.1 to 5 | **** (a value greater than 200) | ** (a value in the range of greater than 90 to 150) |
| CCOc1nn(CC)cc1S(=O)(=O)N1C[C@H](CCc2n[nH]c(=O)o2)Oc2ccc(/C=C/c3c(Cl)cccc3C(F)(F)F)cc21 | < 0.1 | 0.1 to 5 | **** (a value greater than 200) | ** (a value in the range of greater than 90 to 150) |
| CCOc1ncc(C(F)(F)F)cc1S(=O)(=O)N1C[C@H](CCc2n[nH]c(=O)o2)Oc2ccc(/C=C(\C)c3c(F)cccc3Cl)cc21 | < 0.1 | 0.1 to 5 | **** (a value greater than 200) | ** (a value in the range of greater than 90 to 150) |
| C/C(=C\c1ccc2c(c1)N(S(=O)(=O)c1ccc(F)c(OC(F)F)c1)C[C@H](CCc1n[nH]c(=O)o1)O2)c1c(F)cccc1Cl | < 0.1 | 0.1 to 5 | **** (a value greater than 200) | ** (a value in the range of greater than 90 to 150) |
